Read-outs that look alike come from different tables or passages of the source. Blank lines part the entries; values can stand above or below the compound they belong to. Non-standard residues stand in square brackets, D forms with d. Residues, ends and D or L forms follow the SMILES beside them. *: point of attachment. Sta = CC(C)C[C@H](N)[C@@H](O)CC(=O)O; Isovaleryl = CC(C)CC(=O)*
Key:
[1] = system: vWF depolymerizing activity of BAECcm; assay: Inhibitor profile of the vWF depolymerizing activity of BAEC conditioned medium; type: biochemical
purified vWF [2] = biological target: T1, purified vWF (Homo sapiens, UniProt P04275); assay: MPB labelling assay for reduction of vWF disulfide bond(s) / formation of new thiols in vWF; type: biochemical; set-up: Purified vWF from human plasma was obtained from the Baker Medical Research Institute; tissue Baker Medical Research Institute, Melbourne (vWF); host or cells: human plasma (vWF); human platelet concentrates (TSP-1); details: chelation of Ca2+ in the reactions
Protocol: The biotin-linked maleimide, MPB, was used to measure reduction of vWF disulfide bond(s) in BAECcm. […] Free thiol(s) formed in vWF by reduction of disulfide bonds bond(s) were labelled with MPB (100 μM) and the unreacted MPB was quenched with GSH (200 μM). N-ethylmaleimide reacts rapidly with free thiols with a second order rate constant of ˜10^4 M^−1s^−1 at pH 8 (Torchinski and Dixon, 1974). Therefore, the half life for reaction of free thiols in vWF with the maleimide moiety of MPB was anticipated to be in the order of a few seconds. Aliquots of the reactions containing MPB-labelled vWF were incubated in ELISA plate wells coated with anti-vWF polyclonal antibodies. The adsorbed vWF was incubated with streptavidin peroxidase to measure the incorporated MPB. The control for vWF labelling was incubation and labelling of BAECcm alone, prior to addition of vWF. This reaction represented the contribution to the assay of MPB labelling of endogenous vWF and/or other vWF binding proteins in the BAECcm. […]
Reduction of disulfide bonds in vWF was anticipated to result in a net increase in free thiols in the vWF population. […] The MPB-labeled vWF was incubated in ELISA plate wells coated with anti-human vWF polyclonal antibodies and the biotin label was detected using StreptABComplex/HRP (DAKO Corporation, Carpinteria, Calif.).

vWF = biological target: T2, vWF (Homo sapiens, UniProt P04275); assay: Reduction in average multimer size of vWF in TTP plasma (agarose gel, collagen binding/vWF antigen); type: biochemical; details: chelation of Ca2+
T2 construct: from tissue; host or cells: plasma of a TTP patient (vWF); human platelet concentrates (TSP-1)
Protocol: TTP plasma was incubated with 20 mM Hepes, 0.14M NaCl, 1 mM CaCl2, 1 mM MgCl2, pH 7.4 buffer, conditioned media of HMEC-1 cells or the Hepes buffer containing TSP-1 for 1 or 24 hours at 37° C. Aliquots of the reactions were diluted 10-fold in the Hepes buffer and assayed for collagen binding affinity and vWF antigen as described by Favaloro et al. (1991). On some occasions, aliquots of the reactions were resolved on 1% agarose gel electrophoresis (Ruggeri and Zimmerman, 1980), transferred to PVDF membrane (DuPont NEN, Boston, Mass.), blotted with 2 μg per ml of horse radish peroxidase conjugated anti-vWF polyclonal antibodies (DAKO Corporation, Carpinteria, Calif.) and visualized using chemiluminescence (DuPont NEN, Boston, Mass.).
TSP-1 is a major component of platelet α-granules which is secreted upon platelet activation and aggregation. TSP-1 was purified to homogeneity from pooled outdated human platelet concentrates (Murphy-Ullrich and Mosher. 1985; Hogg et al., 1997) and tested for vWF reductase activity. Buffers containing 0.1 mM CaCl2 were used throughout the chromatographic purification of TSP1. […] In particular, the very large multimers were lost (see bracket in FIG. 3A). […] TSP-1-mediated reduction in vWF multimer size was concentration- and time-dependent (FIG. 3B). Three different preparations of platelet TSP-1 had the same vWF reducing activity (not shown). It is noteworthy that the molar ratio of TSP-1 to vWF influenced the extent of reduction in vWF multimer size (FIG. 3B). The vWF reductase activity in endothelial cell conditioned medium is inhibited by EDTA. In accordance with this observation, chelation of Ca^2+ with EDTA ablated the vWF reductase activity of TSP-1 (not shown).

purified vWF [3] = biological target: T1, purified vWF; assay: Effect of purified reductants or thiol reagents on the average multimer size of purified vWF (agarose gel electrophoresis); type: biochemical; set-up: Purified vWF from human plasma was obtained from the Baker Medical Research Institute; tissue Baker Medical Research Institute, Melbourne; host or cells: human plasma; details: for effect on average multimer size of purified vWF: GSH 20 μM, PDI 10 nM, thioredoxin 10 nM, 24 hours at 37° C.
purified vWF [4] = biological target: T1, purified vWF; assay: Effect of purified reductants on affinity of purified vWF for collagen; type: biochemical; details: 24 hours at 37° C.; for effect on vWF collagen affinity: PDI at 10 nM
Protocol: Confluent HUVEC's were washed with M199 without FCS and incubated in M199 for up to 8.5 hours. The HUVECS were stimulated to release vWF by adding […] human α-thrombin after 0.5 hours. The thrombin was quenched after 2 hours incubation by adding 5 mM D-Phe-Pro-Arg-chloromethyl ketone. Samples of the conditioned medium were collected at discrete time intervals and analyzed for vWF by 1% agarose gel electrophoresis and Western blotting or vWF antigen levels and collagen binding affinity (not shown). vWF antigen levels were determined using ELISA by capturing the vWF with adsorbed anti-vWF polyclonal antibodies and detecting using peroxidase conjugated anti-vWF polyclonal antibodies (Favoloro et al., 1991). Collagen binding affinity was assessed by incubating the vWF in plastic wells coated with type I/III collagen for 1 hour and measuring the bound vWF using peroxidase conjugated anti-vWF antibodies (Favoloro et al., 1991). Large vWF multimers bind to collagen with up to ˜100-fold higher affinity than smaller multimers, therefore affinity for collagen is a useful indicator of average vWF multimer size.
The effect of incubation of purified vWF with GSH, PDI, or GSH and PDI, for 24 hours at 37° C. on the affinity of vWF for collagen was analysed. […] The half-maximal effect of GSH on vWF collagen affinity was ˜20 μM. […] The half-maximal effect of GSH in the presence on PDI on vWF collagen affinity was similar to that of GSH alone, ˜20 μM.

plasma vWF = plasma vWF (Homo sapiens, UniProt P04275); details: GSH 20 μM added to BAECcm
Protocol: To test whether exogenous GSH could augment vWF depolymerization by BAECcm, plasma vWF was incubated with BAECcm, or BAECcm and GSH (20 μM), and multimer size measured by either agarose gel electrophoresis or collagen binding.

[5] = measured by agarose gel electrophoresis or collagen binding, BAECcm treated with agent

Compound: CC(C)CC(=O)N[C@H](C(=O)N[C@H](C(=O)N[C@@H](CC(C)C)[C@@H](O)CC(=O)N[C@@H](C)C(=O)N[C@@H](CC(C)C)[C@@H](O)CC(=O)O)C(C)C)C(C)C [pepstatin] (Isovaleryl-VV[Sta]A[Sta]-OH)
effect on vWF depolymerizing activity of BAECcm [1, 5]: not inhibited

Compound: O=C(O)CN(CCN(CC(=O)O)CC(=O)O)CC(=O)O [EDTA]
effect on TSP-1-catalysed formation of free thiols in vWF (purified vWF [2]): ablated
effect on vWF depolymerizing activity of BAECcm [1]: ablated activity
effect on vWF reductase activity of TSP-1 (vWF): ablated

Compound: NCCc1ccc(S(=O)(=O)F)cc1 [4-(2-aminoethyl)benzenesulfonylfluoride]
effect on vWF depolymerizing activity of BAECcm [1, 5]: not inhibited

Compound: aprotinin
effect on vWF depolymerizing activity of BAECcm [1, 5]: not inhibited

Compound: PDI: purified reductant
effect on average multimer size of purified vWF (purified vWF [3]): reduction of the average multimer size of vWF
effect on vWF collagen affinity (purified vWF [4]): reduced vWF collagen affinity to the same extent as 20 μM GSH

Compound: NC(=O)CI [IAM, iodoacetamide]
effect on average multimer size of vWF (purified vWF [3]; incubation of vWF with IAM or NEM alone): did not have any discernible effect
effect on vWF depolymerizing activity of BAECcm [1, 5]: inactivated

effect on vWF collagen affinity (purified vWF [4]): reduced the collagen affinity of vWF
EC50 (purified vWF [4]; GSH alone, read-out: half-maximal effect on vWF collagen affinity): ~20 µM
EC50 (purified vWF [4]; GSH in the presence of PDI, read-out: half-maximal effect on vWF collagen affinity in the presence of PDI): ~20 µM
vWF depolymerization over that by BAECcm alone (plasma vWF; agarose gel electrophoresis): small increase
collagen affinity of vWF (plasma vWF; p<0.05): significant reduction
Compound: N[C@@H](CCC(=O)N[C@@H](CS)C(=O)NCC(=O)O)C(=O)O [GSH, reduced glutathione]
effect on average multimer size of purified vWF (purified vWF [3]): reduction of the average multimer size of vWF

Compound: thioredoxin
effect on average multimer size of purified vWF (purified vWF [3]): reduction of the average multimer size of vWF

Compound: CC(C)C[C@H](NC(=O)[C@H]1O[C@@H]1C(=O)O)C(=O)NCCCCN=C(N)N [E-64]
effect on vWF depolymerizing activity of BAECcm [1, 5]: inactivated

Compound: CC(C)C[C@H](NC(=O)[C@@H](NC(=O)N[C@@H](Cc1ccccc1)C(=O)O)[C@@H]1CCN=C(N)N1)C(=O)N[C@H](C=O)Cc1ccccc1 [chymostatin]
effect on vWF depolymerizing activity of BAECcm [1, 5]: not inhibited

Compound: CC(C)C[C@H](NP(=O)(O)O[C@@H]1O[C@@H](C)[C@H](O)[C@@H](O)[C@H]1O)C(=O)N[C@@H](Cc1c[nH]c2ccccc12)C(=O)O [phosphoramidon]
effect on vWF depolymerizing activity of BAECcm [1, 5]: not inhibited

Compound: CC(=O)N[C@@H](CC(C)C)C(=O)N[C@@H](CC(C)C)C(=O)N[C@H](C=O)CCCNC(=N)N [leupeptin]
effect on vWF depolymerizing activity of BAECcm [1, 5]: not inhibited
